Measurements: ChEMBL document CHEMBL1201862, “PubChem BioAssay data set” (2004)
Activity calls are given as the source filed them.

Columns and labels:
Cytochrome P450 2C19 = Cytochrome P450 2C19 (Homo sapiens, UniProt P33261); test: qHTS Assay for Inhibitors and Substrates of Cytochrome P450 2C19. [Related pubchem assays: 410 ]; type: ADME; settings: read-out: Potency
[1] = HepG2 cell cytotoxicity, dose response, cytotoxicity control, cherry-picked samples (AID 1159577); type: functional, cell-based
[2] = HepG2 cell cytotoxicity, dose response, cytotoxicity control, plate reader, dry powder samples (AID 1159569); type: functional, cell-based;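 also: inhibitor potency with signal falling toward the positive control level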
[3] = P. falciparum 3D7-ScDHODH growth inhibitors, dose response, SYBR Green, dry powder samples (AID 1159570); type: functional, cell-based;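 also: parasite growth measured after 72 hours of compound exposure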
[4] = P. falciparum Dd2 growth inhibitors, dose response, SYBR Green, dry powder samples (AID 1159566); type: functional, cell-based;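 also: potency for growth inhibition with lower SYBR green DNA signal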
[5] = P. falciparum ATP4 D1247Y mutant growth inhibitors, dose response, NITD609-resistant line, SYBR Green, dry powder (AID 1159571); type: functional, cell-based;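 also: parasites synchronized at ring stage by sorbitol before testing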
[6] = P. falciparum Dd2 growth inhibitors, dose response, SYBR Green, cherry-picked samples (AID 1159567); type: functional, cell-based
Cytochrome P450 3A4 = Cytochrome P450 3A4 (Homo sapiens, UniProt P08684); settings: Potency;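 also: confirmatory qHTS run detecting inhibitors and substrates of CYP3A4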
[7] = THP-1 cell cytotoxicity, dose response, cytotoxicity control for Vif-APOBEC3G degradation inhibitor project, THP-1 cells (AID 1117359); type: functional; settings: Human immunodeficiency virus 1, THP-1
Protein Tat = target: T1, Protein Tat (Human immunodeficiency virus type 1 group M subtype B (isolate HXB2)(HIV-1), UniProt P04608); type: functional;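 also: tat binding to TAR RNA read out by fluorescence polarization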
T1 sequence (P04608 whole entry): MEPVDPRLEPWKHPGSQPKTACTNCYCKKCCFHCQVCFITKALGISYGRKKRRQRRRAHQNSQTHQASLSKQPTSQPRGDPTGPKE

Protein RecA = target: T2, Protein RecA (Mycobacterium tuberculosis, UniProt P9WHJ3); test: Fluorescence Cell-Free Homogeneous Dose Retest to Identify Inhibitors of RecA-Intein Splicing Activity. [Related pubchem assays (depositor defined):AID2097, AID2223, AID489010, AID492950]; type: functional
T2 sequence (P9WHJ3 whole entry): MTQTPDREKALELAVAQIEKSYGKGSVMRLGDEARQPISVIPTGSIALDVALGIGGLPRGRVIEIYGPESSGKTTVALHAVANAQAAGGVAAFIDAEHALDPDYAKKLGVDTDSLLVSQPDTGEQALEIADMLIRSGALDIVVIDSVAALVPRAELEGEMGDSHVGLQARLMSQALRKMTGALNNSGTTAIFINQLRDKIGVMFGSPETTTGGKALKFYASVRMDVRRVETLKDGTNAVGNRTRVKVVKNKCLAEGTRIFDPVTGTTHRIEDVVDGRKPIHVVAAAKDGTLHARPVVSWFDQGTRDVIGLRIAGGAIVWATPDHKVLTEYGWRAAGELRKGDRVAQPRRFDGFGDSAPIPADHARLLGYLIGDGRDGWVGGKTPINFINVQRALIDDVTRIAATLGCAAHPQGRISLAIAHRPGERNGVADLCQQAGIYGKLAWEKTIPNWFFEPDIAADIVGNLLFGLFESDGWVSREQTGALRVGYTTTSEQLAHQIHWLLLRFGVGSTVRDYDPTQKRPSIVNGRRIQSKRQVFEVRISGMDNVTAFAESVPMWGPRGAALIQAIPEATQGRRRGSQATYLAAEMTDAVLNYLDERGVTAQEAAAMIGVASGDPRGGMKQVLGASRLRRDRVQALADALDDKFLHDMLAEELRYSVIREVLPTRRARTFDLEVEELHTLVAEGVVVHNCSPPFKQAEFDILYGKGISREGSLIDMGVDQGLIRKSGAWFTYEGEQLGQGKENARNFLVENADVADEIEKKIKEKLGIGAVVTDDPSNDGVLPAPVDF

[8] = M. tuberculosis H37Rv growth inhibitors, H37Rv strain (AID 1626); type: functional
[9] = target: T3, Mannose-6-phosphate isomerase (Homo sapiens, UniProt P34949); test: human PMI inhibitors, high substrate, primary screen, biochemical, fluorescence intensity, high mannose 6-phosphate (AID 1220)
T3 sequence (P34949 whole entry): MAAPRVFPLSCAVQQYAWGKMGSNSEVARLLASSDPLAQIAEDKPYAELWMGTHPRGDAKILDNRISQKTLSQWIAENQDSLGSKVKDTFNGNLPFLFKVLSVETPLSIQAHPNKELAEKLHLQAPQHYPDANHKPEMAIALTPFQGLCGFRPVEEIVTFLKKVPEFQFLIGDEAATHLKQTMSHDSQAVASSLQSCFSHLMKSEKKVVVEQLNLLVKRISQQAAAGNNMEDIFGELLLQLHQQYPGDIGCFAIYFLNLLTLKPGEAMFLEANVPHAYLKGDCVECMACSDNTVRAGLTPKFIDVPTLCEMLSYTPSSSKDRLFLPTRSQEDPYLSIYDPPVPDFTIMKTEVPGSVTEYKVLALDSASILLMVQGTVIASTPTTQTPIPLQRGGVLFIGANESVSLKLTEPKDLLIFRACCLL

[10] = target: Photoreceptor-specific nuclear receptor (Homo sapiens, UniProt Q9Y5X4); test: NR2E3 inverse agonists, dose response, biochemical, TR-FRET (AID 463256); type: functional
[11] = target: Peroxisome proliferator-activated receptor gamma/Nuclear receptor corepressor 2 (Homo sapiens, UniProt P37231+Q9Y618); test: Counterscreen for NR2E3 inverse agonists: TR-FRET-based biochemical high throughput dose response assay to identify inverse agonists of the interaction between peroxisome proliferator-activated receptor gamma (PPARg) and nuclear receptor co-repressor 2 (NCOR2).; type: functional
[12] = HeLa 4N DNA content increase, dose response, cell-based, IC50 (AID 1117351); type: functional
[13] = Dose-response inhibition of insulin secretion in a rat insulinoma line at 5 mM glucose (AID 1117331); type: functional, cell-based; settings: INS-1E
[14] = HeLa 2N DNA content increase, dose response, cell-based, IC50 (AID 1117349); type: functional
Bcl-2-related protein A1 [15] = target: T4, Bcl-2-related protein A1 (Mus musculus, UniProt Q07440); test: Bfl-1 inhibitors blocking BH3 peptide binding, confirmation, biochemical, TR-FRET, mouse Bfl-1 (AID 621);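 also: TR-FRET binding of GST-Bfl-1 to FITC-labelled Bid peptide via terbium antibody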
T4 sequence (Q07440 whole entry): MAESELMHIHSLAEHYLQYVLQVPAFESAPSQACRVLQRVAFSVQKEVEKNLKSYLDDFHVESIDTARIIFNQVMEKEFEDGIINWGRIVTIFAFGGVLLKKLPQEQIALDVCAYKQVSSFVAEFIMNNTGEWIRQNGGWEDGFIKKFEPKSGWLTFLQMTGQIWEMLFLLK

Bcl-2-related protein A1 [16] = target: T4, Bcl-2-related protein A1; test: Bfl-1 binding inhibitors, SAR follow-up, biochemical, fluorescence polarization (AID 1070)

Cytochrome P450 2C19, sequence (P33261 whole entry): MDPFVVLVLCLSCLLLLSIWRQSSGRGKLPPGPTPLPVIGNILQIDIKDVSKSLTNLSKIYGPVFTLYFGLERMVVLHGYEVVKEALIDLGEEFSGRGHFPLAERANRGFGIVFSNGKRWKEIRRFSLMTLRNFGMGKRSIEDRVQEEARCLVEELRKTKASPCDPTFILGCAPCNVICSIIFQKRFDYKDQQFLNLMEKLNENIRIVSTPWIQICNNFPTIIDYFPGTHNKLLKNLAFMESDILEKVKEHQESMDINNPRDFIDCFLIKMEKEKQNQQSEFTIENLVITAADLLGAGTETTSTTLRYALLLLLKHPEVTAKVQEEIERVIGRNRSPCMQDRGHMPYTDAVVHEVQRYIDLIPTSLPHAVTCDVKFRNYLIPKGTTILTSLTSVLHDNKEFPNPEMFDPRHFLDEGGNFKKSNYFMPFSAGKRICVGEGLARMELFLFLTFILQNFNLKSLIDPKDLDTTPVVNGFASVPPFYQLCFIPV
Photoreceptor-specific nuclear receptor, sequence (Q9Y5X4 whole entry): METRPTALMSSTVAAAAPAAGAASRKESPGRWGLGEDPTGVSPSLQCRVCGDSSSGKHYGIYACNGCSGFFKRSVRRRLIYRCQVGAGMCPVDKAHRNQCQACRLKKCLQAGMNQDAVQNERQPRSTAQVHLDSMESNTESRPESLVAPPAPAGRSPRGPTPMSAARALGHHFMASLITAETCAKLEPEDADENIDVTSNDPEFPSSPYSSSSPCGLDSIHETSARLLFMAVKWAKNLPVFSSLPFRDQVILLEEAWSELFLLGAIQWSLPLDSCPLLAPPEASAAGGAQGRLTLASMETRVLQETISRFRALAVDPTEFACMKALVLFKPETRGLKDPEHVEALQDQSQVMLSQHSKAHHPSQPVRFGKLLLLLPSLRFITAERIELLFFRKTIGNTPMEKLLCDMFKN
Cytochrome P450 3A4, sequence (P08684 whole entry): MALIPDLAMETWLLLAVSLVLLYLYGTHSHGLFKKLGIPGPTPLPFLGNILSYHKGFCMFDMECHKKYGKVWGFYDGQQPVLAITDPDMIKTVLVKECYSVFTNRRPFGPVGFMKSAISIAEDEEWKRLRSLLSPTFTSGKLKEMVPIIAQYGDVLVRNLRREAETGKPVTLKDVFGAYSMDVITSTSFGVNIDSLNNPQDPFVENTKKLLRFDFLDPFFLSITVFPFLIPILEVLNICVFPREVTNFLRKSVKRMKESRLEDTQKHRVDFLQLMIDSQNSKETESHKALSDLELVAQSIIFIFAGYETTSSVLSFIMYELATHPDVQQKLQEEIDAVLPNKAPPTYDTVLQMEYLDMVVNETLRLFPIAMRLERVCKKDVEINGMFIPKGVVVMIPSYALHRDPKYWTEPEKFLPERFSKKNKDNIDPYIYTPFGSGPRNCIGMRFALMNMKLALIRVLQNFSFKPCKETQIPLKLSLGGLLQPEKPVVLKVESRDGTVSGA
Peroxisome proliferator-activated receptor gamma/Nuclear receptor corepressor 2, sequence (P37231 whole entry): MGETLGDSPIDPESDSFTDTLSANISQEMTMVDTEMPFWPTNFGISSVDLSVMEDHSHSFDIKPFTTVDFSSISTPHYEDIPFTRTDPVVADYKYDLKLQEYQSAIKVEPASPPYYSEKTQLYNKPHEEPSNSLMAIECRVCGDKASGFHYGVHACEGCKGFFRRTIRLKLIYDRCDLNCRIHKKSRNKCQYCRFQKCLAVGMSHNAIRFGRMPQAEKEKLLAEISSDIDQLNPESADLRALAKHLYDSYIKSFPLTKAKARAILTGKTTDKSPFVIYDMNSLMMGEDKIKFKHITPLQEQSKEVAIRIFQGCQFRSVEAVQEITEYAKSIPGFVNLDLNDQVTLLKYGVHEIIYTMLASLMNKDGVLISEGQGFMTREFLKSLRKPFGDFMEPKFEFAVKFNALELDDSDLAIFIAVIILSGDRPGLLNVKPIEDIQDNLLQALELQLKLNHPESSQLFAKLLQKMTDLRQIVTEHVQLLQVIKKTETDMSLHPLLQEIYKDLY
Peroxisome proliferator-activated receptor gamma/Nuclear receptor corepressor 2, sequence (Q9Y618 whole entry): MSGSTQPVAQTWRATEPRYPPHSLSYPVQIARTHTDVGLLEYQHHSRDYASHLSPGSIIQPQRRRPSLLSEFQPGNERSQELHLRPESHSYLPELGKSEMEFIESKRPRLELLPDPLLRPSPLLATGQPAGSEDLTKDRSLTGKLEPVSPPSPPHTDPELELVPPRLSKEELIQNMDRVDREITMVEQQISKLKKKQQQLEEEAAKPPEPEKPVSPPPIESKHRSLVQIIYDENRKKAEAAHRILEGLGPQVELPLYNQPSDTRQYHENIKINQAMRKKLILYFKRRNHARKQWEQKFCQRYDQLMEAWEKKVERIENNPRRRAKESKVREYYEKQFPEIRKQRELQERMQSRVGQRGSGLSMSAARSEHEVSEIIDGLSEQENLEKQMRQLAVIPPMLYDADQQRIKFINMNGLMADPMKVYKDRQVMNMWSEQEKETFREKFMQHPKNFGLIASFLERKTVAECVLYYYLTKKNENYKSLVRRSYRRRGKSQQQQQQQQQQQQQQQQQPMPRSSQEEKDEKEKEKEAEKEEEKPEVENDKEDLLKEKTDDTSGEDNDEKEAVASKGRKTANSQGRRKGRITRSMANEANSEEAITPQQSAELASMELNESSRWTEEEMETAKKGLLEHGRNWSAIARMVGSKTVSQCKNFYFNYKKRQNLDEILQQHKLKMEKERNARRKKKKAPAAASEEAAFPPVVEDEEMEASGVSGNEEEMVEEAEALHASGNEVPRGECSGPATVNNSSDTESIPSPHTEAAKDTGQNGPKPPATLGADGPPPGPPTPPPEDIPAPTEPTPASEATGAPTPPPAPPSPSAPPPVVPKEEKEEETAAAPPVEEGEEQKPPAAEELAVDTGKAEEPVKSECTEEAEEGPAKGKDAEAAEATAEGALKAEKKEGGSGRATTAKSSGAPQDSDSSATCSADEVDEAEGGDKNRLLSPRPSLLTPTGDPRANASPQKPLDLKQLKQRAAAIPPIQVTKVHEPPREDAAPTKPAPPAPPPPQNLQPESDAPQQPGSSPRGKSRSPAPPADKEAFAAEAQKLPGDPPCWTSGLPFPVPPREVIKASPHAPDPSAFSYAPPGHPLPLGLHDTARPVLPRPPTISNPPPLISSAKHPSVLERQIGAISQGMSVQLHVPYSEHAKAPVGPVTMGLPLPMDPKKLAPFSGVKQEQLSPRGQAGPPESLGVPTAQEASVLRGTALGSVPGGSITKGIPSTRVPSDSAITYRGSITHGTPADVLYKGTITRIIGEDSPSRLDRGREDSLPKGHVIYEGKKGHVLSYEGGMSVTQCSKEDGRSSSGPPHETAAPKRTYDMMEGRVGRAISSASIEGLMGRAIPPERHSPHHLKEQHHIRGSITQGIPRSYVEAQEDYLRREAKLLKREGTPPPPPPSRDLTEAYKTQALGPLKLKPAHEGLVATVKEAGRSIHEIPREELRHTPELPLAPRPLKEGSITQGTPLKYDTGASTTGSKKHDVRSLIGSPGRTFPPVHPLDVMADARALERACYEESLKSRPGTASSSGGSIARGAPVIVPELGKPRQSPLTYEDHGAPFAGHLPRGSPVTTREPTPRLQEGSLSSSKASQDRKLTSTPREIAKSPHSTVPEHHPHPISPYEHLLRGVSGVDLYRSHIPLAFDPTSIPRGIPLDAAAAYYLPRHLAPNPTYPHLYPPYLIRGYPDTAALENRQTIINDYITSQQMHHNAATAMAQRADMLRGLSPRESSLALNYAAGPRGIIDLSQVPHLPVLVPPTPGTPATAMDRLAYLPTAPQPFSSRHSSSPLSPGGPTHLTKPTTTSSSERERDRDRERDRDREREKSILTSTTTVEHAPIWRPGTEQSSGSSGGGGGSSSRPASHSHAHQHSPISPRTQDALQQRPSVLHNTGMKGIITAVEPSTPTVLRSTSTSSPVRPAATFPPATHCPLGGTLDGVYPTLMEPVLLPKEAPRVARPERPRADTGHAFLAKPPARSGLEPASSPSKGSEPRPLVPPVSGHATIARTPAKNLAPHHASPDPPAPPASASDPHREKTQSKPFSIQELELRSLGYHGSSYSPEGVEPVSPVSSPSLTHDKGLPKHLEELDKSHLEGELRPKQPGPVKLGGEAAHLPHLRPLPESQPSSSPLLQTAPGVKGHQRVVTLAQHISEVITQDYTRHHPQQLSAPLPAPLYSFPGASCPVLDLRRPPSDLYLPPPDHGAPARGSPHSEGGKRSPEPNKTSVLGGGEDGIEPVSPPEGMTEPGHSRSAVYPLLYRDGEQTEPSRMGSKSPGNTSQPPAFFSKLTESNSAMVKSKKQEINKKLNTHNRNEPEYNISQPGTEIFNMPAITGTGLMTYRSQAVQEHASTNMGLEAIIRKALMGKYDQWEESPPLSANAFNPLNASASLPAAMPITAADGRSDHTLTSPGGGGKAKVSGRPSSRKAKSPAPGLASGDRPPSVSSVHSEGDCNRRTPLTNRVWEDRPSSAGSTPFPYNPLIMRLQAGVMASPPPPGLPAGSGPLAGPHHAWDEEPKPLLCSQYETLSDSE

With `CC1CCC2C(=O)N3C(CCC(C)[C@@H]3c3cccc(N4CCOCC4)c3)C(=O)N2C1c1cccc(Br)c1` (stereo partly specified) as the compound, how does the AC50 (Cytochrome P450 2C19) read?
Its AC50 is 7.94 µM (inconclusive).

For `COc1cccc(-c2ccc3c(c2)[C@@H]2[C@@H](CCN2C(=O)C2CCCC2)[C@@H](CO)N3)c1`, which AC50 [1] is on record?
Its AC50 is > 39 µM (inactive).

What about the AC50 [2] of the same compound?
Its AC50 is 32.9 µM (active).

What about the AC50 [3] of the same compound?
The AC50 was 2.57 µM (active).

And the AC50 [4]?
The AC50 was 2.12 µM (active).

What about the AC50 [5] of the same compound?
Its AC50 is 1.65 µM (active).

What about the AC50 [6] of the same compound?
The AC50 was 2.25 µM (active).

For `CCC/C=C/C1C(=O)C2OC2C2(OCC(CC)(CC)CO2)C1CO` (stereo unspecified), which AC50 (Cytochrome P450 2C19) is on record?
The AC50 was 0.004 µM (inconclusive).

What about the AC50 (Cytochrome P450 3A4) of the same compound?
Its AC50 is 3.98 µM (inconclusive).

With `Cc1nc2cc(NN=C3C(=O)CCCC3=O)ccc2s1` as the compound, how does the CC50 [7] read?
Its CC50 is > 40 µM (active).

What about the IC50 (Protein Tat) of the same compound?
Its IC50 is > 50 µM (active).

With `COc1ccc(/N=C/C2=C(O)c3ccccc3CC2)cc1` as the compound, how does the EC50 (Protein RecA) read?
The EC50 was 18.6 µM (active).

What about the IC50 [8] of the same compound?
The IC50 was > 100 µM (active).

What about the IC50 [9] of the same compound?
The IC50 was < 0.391 µM (not active).

Which results are given for `CS(=O)(=O)N(CC(=O)NC1CCCCC1)Cc1ccc(F)cc1`?
IC50 [10]: > 39.8 µM (not active); IC50 [11]: > 39.8 µM (not active)

Which IC50 [12] does the source give for `CCN(CC)CCNC(=O)C1C(C)=NC(/C=C2\C(=O)Nc3ccc(F)cc32)=C1C` (stereo unspecified) here?
Its IC50 is > 10 µM (inactive).

What about the IC50 [13] of the same compound?
The IC50 was > 33.3 µM (inactive).

And the IC50 [14]?
Its IC50 is > 10 µM (inactive).

Which IC50 (Bcl-2-related protein A1 [15]) does the source give for `Clc1ccc(-n2nnc(-c3cc4ccccc4nc3Cl)n2)cc1Cl` here?
Its IC50 is > 100 µM (not active).

What about the IC50 (Bcl-2-related protein A1 [16]) of the same compound?
The IC50 was > 100 µM (not active).
